According to PubChem BioAssay AID220 (DTP/NCI, 2004):
“And” between values parts separate entries of the source, which are not always exact repeats. Equal values may be shown once. Inconclusive results are not listed.

Test system: CD8F1 mice, subcutaneous mammary adenocarcinoma, T/C%
Assay: NCI In Vivo Anticancer Drug Screen. Data for tumor model Mammary Adenocarcinoma CD8F1 (subcutaneous) in CD8F1
Settings: higher = larger tumour
Experimental: The antitumor activity of compounds was measured in mice bearing transplantable tumors. Survival or tumor size were measured and the results are expressed as the measurement made in the treated group (T) divided by the measurement made in the vehicle treated control group (C). The tumor model used in this assay is Mammary Adenocarcinoma CD8F1 (subcutaneous) in CD8F1

[1] = endpoint: median tumor weight change, dose: 125.0 mg/kg/injection, schedule: Q01DX001 (ip), vehicle: suspension in saline
[2] = endpoint: median tumor weight (est.), dose: 12.5 mg/kg/injection, schedule: Q07DX005 (ip), vehicle: Klucel (hydroxypropylcellulose) (HPC)
[3] = endpoint: median tumor weight (est.), dose: 100.0 mg/kg/injection, schedule: Q07DX005 (ip), vehicle: Klucel (hydroxypropylcellulose) (HPC)
[4] = endpoint: median tumor weight (est.), dose: 200.0 mg/kg/injection, schedule: Q07DX005 (ip), vehicle: Klucel (hydroxypropylcellulose) (HPC)
[5] = endpoint: median tumor weight change, dose: 125.0 mg/kg/injection, schedule: Q01DX001 (ip), vehicle: saline
[6] = endpoint: median tumor weight change, dose: 1000.0 mg/kg/injection, schedule: Q01DX001 (ip), vehicle: saline
[7] = endpoint: median tumor weight change, dose: 125.0 mg/kg/injection, schedule: Q01DX001 (ip), vehicle: saline with Tween-80
[8] = endpoint: median tumor weight change, dose: 250.0 mg/kg/injection, schedule: Q01DX001 (ip), vehicle: saline with Tween-80
[9] = endpoint: median tumor weight (est.), dose: 50.0 mg/kg/injection, schedule: Q07DX005 (ip), vehicle: Klucel (hydroxypropylcellulose) (HPC)

With `CNc1n[n+](-c2ccccc2)no1` the T/C (endpoint: mean tumor weight, dose: 3.12 mg/kg/injection, schedule: Q07DX006 (ip), vehicle: saline) was 90 % of control, the T/C (endpoint: mean tumor weight, dose: 12.5 mg/kg/injection, schedule: Q07DX006 (ip), vehicle: saline) was 27 % of control and the T/C (endpoint: mean tumor weight, dose: 25.0 mg/kg/injection, schedule: Q07DX006 (ip), vehicle: saline) was 81 % of control. For the same compound, the T/C (endpoint: mean tumor weight, dose: 50.0 mg/kg/injection, schedule: Q07DX006 (ip), vehicle: saline) was 2 % of control, the T/C (endpoint: median tumor weight (est.), dose: 3.12 mg/kg/injection, schedule: Q07DX005 (ip), vehicle: saline) was 157 % of control and the T/C (endpoint: median tumor weight (est.), dose: 50.0 mg/kg/injection, schedule: Q07DX005 (ip), vehicle: saline) was 50 % of control and 60 % of control.

In the case of `CN(C)CCN1C(=O)c2cccc3cc([N+](=O)[O-])cc(c23)C1=O`, the T/C (endpoint: median tumor weight change, dose: 7.5 mg/kg/injection, schedule: Q01DX001 (ip), vehicle: saline with Tween-80) is reported as 57 % of control, the T/C (endpoint: median tumor weight change, dose: 15.0 mg/kg/injection, schedule: Q01DX001 (ip), vehicle: saline with Tween-80) is reported as 91 % of control and the T/C (endpoint: median tumor weight change, dose: 30.0 mg/kg/injection, schedule: Q01DX001 (ip), vehicle: saline with Tween-80) is reported as 55 % of control.

`O=C1N(CC2CO2)CCN1CC1CO1` (configuration not stated) was tested, and the T/C [1] was 30 % of control.

For `Cc1cc(N(CCOS(C)(=O)=O)CCOS(C)(=O)=O)ccc1C=Nc1ccc(-c2nc(Cc3ccccc3)sc2C)cc1`, the T/C [2] was 18 % of control, the T/C [3] was 4 % of control and 9 % of control and the T/C [4] was 10 % of control.

`C[C@H](N)C(=O)N[C@@H]1[C@H]2C(=C(O)C[C@@H](O)[C@@H]2O)C(=O)O[C@@H]1C` was tested, and the T/C [5] was 101 % of control, the T/C (endpoint: median tumor weight change, dose: 250.0 mg/kg/injection, schedule: Q01DX001 (ip), vehicle: saline) was 120 % of control and the T/C [6] was 57 % of control. The T/C (endpoint: median tumor weight change, dose: 2000.0 mg/kg/injection, schedule: Q01DX001 (ip), vehicle: saline) was 86 % of control.

In the case of `CC1=C(C)C(=O)O[C@@H]([C@](C)(O)[C@]2(O)CC[C@@]3(O)[C@@H]4C[C@H]5O[C@]56CC=CC(=O)[C@]6(C)[C@H]4CC[C@]23C)C1`, the T/C (endpoint: median tumor weight change, dose: 25.0 mg/kg/injection, schedule: Q01DX001 (ip), vehicle: saline) is reported as 91 % of control, the T/C (endpoint: median tumor weight change, dose: 50.0 mg/kg/injection, schedule: Q01DX001 (ip), vehicle: saline) is reported as 98 % of control and the T/C (endpoint: median tumor weight change, dose: 200.0 mg/kg/injection, schedule: Q01DX001 (ip), vehicle: saline) is reported as 69 % of control. The T/C (endpoint: median tumor weight change, dose: 400.0 mg/kg/injection, schedule: Q01DX001 (ip), vehicle: saline) was 82 % of control.

With `O=[N+]([O-])c1ccc(-n2[nH]nnc2=S)cc1` the T/C [7] was 101 % of control and 119 % of control and the T/C [8] was 112 % of control.

For `COc1c(CNC(=O)CCl)cc2[nH]c(C)cc2c1CNC(=O)CCl`, the T/C (endpoint: median tumor weight (est.), dose: 6.25 mg/kg/injection, schedule: Q07DX005 (ip), vehicle: Klucel (hydroxypropylcellulose) (HPC)) was 92 % of control, the T/C [2] was 67 % of control and the T/C [9] was 97 % of control. For the same compound, the T/C [3] was 55 % of control, the T/C [4] was 57 % of control and the T/C (endpoint: median tumor weight change, dose: 125.0 mg/kg/injection, schedule: Q01DX001 (ip), vehicle: Klucel (hydroxypropylcellulose) (HPC)) was 106 % of control. For the same compound, the T/C (endpoint: median tumor weight change, dose: 250.0 mg/kg/injection, schedule: Q01DX001 (ip), vehicle: Klucel (hydroxypropylcellulose) (HPC)) was 108 % of control.

`CC(=O)OC1=NC(C)c2c1cc(OC(C)=O)[nH]c2=O` (configuration not stated) was tested, and the T/C [2] was 86 % of control, the T/C (endpoint: median tumor weight (est.), dose: 25.0 mg/kg/injection, schedule: Q07DX005 (ip), vehicle: Klucel (hydroxypropylcellulose) (HPC)) was 168 % of control and the T/C [9] was 111 % of control.

`O=[n+]1c2ccccc2n([O-])c2ccccc21.[Cl][Ni][Cl]` was tested, and the T/C (endpoint: median tumor weight change, dose: 15.63 mg/kg/injection, schedule: Q01DX001 (ip), vehicle: saline with Tween-80) was 87 % of control and the T/C (endpoint: median tumor weight change, dose: 31.25 mg/kg/injection, schedule: Q01DX001 (ip), vehicle: saline with Tween-80) was 52 % of control.

With `O=c1cc[nH]c(=O)o1` the T/C (endpoint: mean tumor weight, dose: 5.0 mg/kg/injection, schedule: Q04DX008 (ip), vehicle: water) was 75 % of control, the T/C (endpoint: mean tumor weight, dose: 10.0 mg/kg/injection, schedule: Q04DX008 (ip), vehicle: water) was 109 % of control and the T/C (endpoint: mean tumor weight, dose: 20.0 mg/kg/injection, schedule: Q04DX008 (ip), vehicle: water) was 70 % of control. The T/C (endpoint: mean tumor weight, dose: 25.0 mg/kg/injection, schedule: Q07DX005 (ip), vehicle: saline) was 112 % of control, the T/C (endpoint: mean tumor weight, dose: 25.0 mg/kg/injection, schedule: Q07DX007 (ip), vehicle: saline) was 152 % of control and the T/C (endpoint: mean tumor weight, dose: 50.0 mg/kg/injection, schedule: Q07DX005 (ip), vehicle: saline) was 54 % of control. The T/C (endpoint: mean tumor weight, dose: 50.0 mg/kg/injection, schedule: Q07DX007 (ip), vehicle: saline) was 87 % of control, the T/C (endpoint: mean tumor weight, dose: 75.0 mg/kg/injection, schedule: Q07DX007 (ip), vehicle: saline) was 46 % of control and the T/C (endpoint: median tumor weight (est.), dose: 12.2 mg/kg/injection, schedule: Q07DX005 (ip), vehicle: saline) was 62 % of control. For the same compound, the T/C (endpoint: median tumor weight (est.), dose: 28.0 mg/kg/injection, schedule: Q07DX005 (ip), vehicle: saline) was 83 % of control, the T/C (endpoint: median tumor weight (est.), dose: 42.0 mg/kg/injection, schedule: Q07DX005 (ip), vehicle: saline) was 118 % of control and the T/C (endpoint: median tumor weight (est.), dose: 63.0 mg/kg/injection, schedule: Q07DX005 (ip), vehicle: saline) was 67 % of control.

`COC1CC(CC2CCC(C)C(C(C)C(=O)O)O2)OC2(OC(C)(C3CCC(C)(C4OC(C5OC(O)(CO)C(C)CC5C)CC4C)O3)CC2C)C1C` (configuration not stated) was tested, and the T/C (endpoint: median tumor weight (est.), dose: 0.31 mg/kg/injection, schedule: Q07DX005 (ip), vehicle: Klucel (hydroxypropylcellulose) (HPC)) was 112 % of control, the T/C (endpoint: median tumor weight (est.), dose: 0.63 mg/kg/injection, schedule: Q07DX005 (ip), vehicle: Klucel (hydroxypropylcellulose) (HPC)) was 398 % of control and the T/C (endpoint: median tumor weight (est.), dose: 1.25 mg/kg/injection, schedule: Q07DX005 (ip), vehicle: Klucel (hydroxypropylcellulose) (HPC)) was 390 % of control. For the same compound, the T/C (endpoint: median tumor weight (est.), dose: 2.5 mg/kg/injection, schedule: Q07DX005 (ip), vehicle: Klucel (hydroxypropylcellulose) (HPC)) was 47 % of control, the T/C (endpoint: median tumor weight (est.), dose: 5.0 mg/kg/injection, schedule: Q07DX005 (ip), vehicle: Klucel (hydroxypropylcellulose) (HPC)) was 380 % of control and the T/C (endpoint: median tumor weight (est.), dose: 10.0 mg/kg/injection, schedule: Q07DX005 (ip), vehicle: Klucel (hydroxypropylcellulose) (HPC)) was 323 % of control.

In the case of `CCCCCCCC(=O)OCC(=O)[C@]1(O)Cc2c(O)c3c(c(O)c2[C@@H](OC2CC(N)C(O)C(C)O2)C1)C(=O)c1c(OC)cccc1C3=O` (some centres not stated), the T/C (endpoint: mean tumor weight, dose: 1.0 mg/kg/injection, schedule: Q07DX006 (ip), vehicle: saline) is reported as 62 % of control, the T/C (endpoint: mean tumor weight, dose: 2.0 mg/kg/injection, schedule: Q07DX006 (ip), vehicle: saline) is reported as 19 % of control and the T/C (endpoint: median tumor weight (est.), dose: 1.0 mg/kg/injection, schedule: Q07DX005 (ip), vehicle: saline) is reported as 64 % of control. For the same compound, the T/C (endpoint: median tumor weight (est.), dose: 2.0 mg/kg/injection, schedule: Q07DX005 (ip), vehicle: saline) was 64 % of control, the T/C (endpoint: median tumor weight (est.), dose: 4.0 mg/kg/injection, schedule: Q07DX005 (ip), vehicle: saline) was 66 % of control and the T/C (endpoint: median tumor weight (est.), dose: 8.0 mg/kg/injection, schedule: Q07DX005 (ip), vehicle: saline) was 11 % of control.

`CC(=O)NCCCCCCNC(C)=O` was tested, and the T/C [5] was 58 % of control, the T/C (endpoint: median tumor weight change, dose: 500.0 mg/kg/injection, schedule: Q01DX001 (ip), vehicle: saline) was 67 % of control and the T/C [6] was 52 % of control and 72 % of control. For the same compound, the T/C (endpoint: median tumor weight change, dose: 4000.0 mg/kg/injection, schedule: Q01DX001 (ip), vehicle: saline) was 39 % of control.

`O=c1s[se]c2ccccc12` was tested, and the T/C (endpoint: median tumor weight (est.), dose: 3.12 mg/kg/injection, schedule: Q07DX005 (ip), vehicle: saline with Tween-80) was 86 % of control, the T/C (endpoint: median tumor weight (est.), dose: 6.25 mg/kg/injection, schedule: Q07DX005 (ip), vehicle: saline with Tween-80) was 187 % of control and the T/C (endpoint: median tumor weight (est.), dose: 12.5 mg/kg/injection, schedule: Q07DX005 (ip), vehicle: saline with Tween-80) was 156 % of control. For the same compound, the T/C (endpoint: median tumor weight (est.), dose: 25.0 mg/kg/injection, schedule: Q07DX005 (ip), vehicle: saline with Tween-80) was 82 % of control and the T/C (endpoint: median tumor weight (est.), dose: 50.0 mg/kg/injection, schedule: Q07DX005 (ip), vehicle: saline with Tween-80) was 81 % of control.

In the case of `N=C(N)SCc1cccc2c(=O)cc(-c3ccccc3)oc12`, the T/C [1] is reported as 151 % of control, the T/C (endpoint: median tumor weight change, dose: 250.0 mg/kg/injection, schedule: Q01DX001 (ip), vehicle: suspension in saline) is reported as 151 % of control and the T/C (endpoint: median tumor weight change, dose: 500.0 mg/kg/injection, schedule: Q01DX001 (ip), vehicle: suspension in saline) is reported as 106 % of control. The T/C (endpoint: median tumor weight change, dose: 1000.0 mg/kg/injection, schedule: Q01DX001 (ip), vehicle: suspension in saline) was 123 % of control.

With `Oc1c(Cl)cc(Cl)cc1C1N2CCCCC2C2c3cccn3-c3ccccc3N21` (configuration not stated) the T/C [7] was 69 % of control, the T/C [8] was 85 % of control and the T/C (endpoint: median tumor weight change, dose: 500.0 mg/kg/injection, schedule: Q01DX001 (ip), vehicle: saline with Tween-80) was 58 % of control. For the same compound, the T/C (endpoint: median tumor weight change, dose: 1000.0 mg/kg/injection, schedule: Q01DX001 (ip), vehicle: saline with Tween-80) was 68 % of control and the T/C (endpoint: median tumor weight change, dose: 2000.0 mg/kg/injection, schedule: Q01DX001 (ip), vehicle: saline with Tween-80) was 79 % of control.
